# Legend:
# [1] = system: HCT-116; test: Antiproliferative activity against human HCT116 cells after 72 hrs by MTT assay; assay type: functional, cell-based
# [2] = system: A549; test: Antiproliferative activity against human A549 cells after 72 hrs by MTT assay; assay type: functional, cell-based
# [3] = system: SW-620; test: Antiproliferative activity against human SW620 cells after 72 hrs by MTT assay; assay type: functional, cell-based
# [4] = system: PC-3; test: Antiproliferative activity against human PC3 cells after 72 hrs by MTT assay; assay type: functional, cell-based
# [5] = target: Tumour suppressor p53/oncoprotein Mdm2 (Homo sapiens, UniProt Q00987); test: Competitive inhibition of MDM2/P53 interaction after 1 hr by fluorescence polarization assay; assay type: protein assay
# Tumour suppressor p53/oncoprotein Mdm2, sequence (P04637 whole entry): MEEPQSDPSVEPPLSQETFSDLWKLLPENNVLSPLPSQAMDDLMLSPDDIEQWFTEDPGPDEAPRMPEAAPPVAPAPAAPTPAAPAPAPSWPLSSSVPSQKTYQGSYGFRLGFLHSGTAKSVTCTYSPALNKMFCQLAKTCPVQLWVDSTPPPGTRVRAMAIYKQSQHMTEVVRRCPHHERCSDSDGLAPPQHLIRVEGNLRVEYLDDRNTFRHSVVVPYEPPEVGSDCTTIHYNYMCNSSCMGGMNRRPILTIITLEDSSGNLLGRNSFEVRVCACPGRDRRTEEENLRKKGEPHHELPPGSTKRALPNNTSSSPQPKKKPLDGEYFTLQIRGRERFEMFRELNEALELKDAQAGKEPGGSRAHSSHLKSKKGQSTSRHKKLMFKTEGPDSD
# Tumour suppressor p53/oncoprotein Mdm2, sequence (Q00987 whole entry): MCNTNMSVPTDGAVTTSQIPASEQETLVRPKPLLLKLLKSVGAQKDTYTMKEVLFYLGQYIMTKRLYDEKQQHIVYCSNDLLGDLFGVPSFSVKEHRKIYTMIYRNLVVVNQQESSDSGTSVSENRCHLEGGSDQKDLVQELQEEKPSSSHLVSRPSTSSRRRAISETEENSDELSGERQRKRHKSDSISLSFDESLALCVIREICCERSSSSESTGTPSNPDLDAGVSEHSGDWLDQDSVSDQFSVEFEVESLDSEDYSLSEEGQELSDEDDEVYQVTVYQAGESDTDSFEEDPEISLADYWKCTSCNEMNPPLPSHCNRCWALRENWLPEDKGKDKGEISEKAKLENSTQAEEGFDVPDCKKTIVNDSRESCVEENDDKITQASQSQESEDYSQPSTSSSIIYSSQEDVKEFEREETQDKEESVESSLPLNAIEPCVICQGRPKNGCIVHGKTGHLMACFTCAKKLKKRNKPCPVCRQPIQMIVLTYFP
# [6] = system: HL-60; test: Antiproliferative activity against human HL60 cells after 72 hrs by MTT assay; assay type: functional, cell-based
# [7] = target: Tumour suppressor p53/oncoprotein Mdm2 (Homo sapiens) (UniProt P04637+Q00987); test: Ratio of nutlin-1 IC50 to compound IC50 for MDM2 expressed in Escherichia coli BL-21 and P53 binding interaction after 1 hr by fluorescence polarization competitive binding assay
# Tumour suppressor p53/oncoprotein Mdm2 (Homo sapiens), sequence (P04637 whole entry, looked up): as the sequence (P04637 whole entry) above
# Tumour suppressor p53/oncoprotein Mdm2 (Homo sapiens), sequence (Q00987 whole entry, looked up): as the sequence (Q00987 whole entry) above
# [8] = Homo sapiens, HCT-116, 72 h, read-out: IC50
# [9] = Homo sapiens, A549, 72 h, read-out: IC50
# [10] = Homo sapiens, SW-620, 72 h, read-out: IC50
# [11] = Homo sapiens, PC-3, 72 h, read-out: IC50
# [12] = Homo sapiens, HL-60, 72 h, read-out: IC50
Structure (SMILES),"IC50 [1, 8]","IC50 [2, 9]","IC50 [3, 10]","IC50 [4, 11]",IC50 ([5]; read-out: IC50),"IC50 [6, 12]",IC50 ([1]; hct-116),IC50 ([2]; a549),IC50 ([3]; sw-620),IC50 ([4]; pc-3),IC50 ([6]; hl-60),IC50 ([5]; read-out: pIC50 (converted)),Ratio IC50 [7]
COc1ccc(C2=N[C@H](c3ccc(Cl)cc3)[C@H](c3ccc(Cl)cc3)N2C(=O)N[C@H](C)C(=O)N2CCN(C)CC2)c(OC(C)C)c1,3.71 µM,2.97 µM,2.74 µM,6.74 µM,5.96 µM,3.17 µM,,,,,,,
COc1ccc(C2=N[C@H](c3ccc(Cl)cc3)[C@H](c3ccc(Cl)cc3)N2C(=O)NCC(=O)N2CCN(C)CC2)c(OC(C)C)c1,4.49 µM,3.62 µM,6.17 µM,3.55 µM,20.6 µM,3.29 µM,,,,,,,
COc1ccc(C2=N[C@H](c3ccc(Cl)cc3)[C@H](c3ccc(Cl)cc3)N2C(=O)NCCCC(=O)O)c(OC(C)C)c1,6.07 µM,0.48 µM,5.7 µM,3.9 µM,2.05 µM,5.73 µM,,,,,,,
CCN(CC)C(=O)[C@H](C)NC(=O)N1C(c2ccc(OC)cc2OC(C)C)=N[C@H](c2ccc(Cl)cc2)[C@@H]1c1ccc(Cl)cc1,2.01 µM,3.31 µM,4.6 µM,5.32 µM,12.6 µM,4.22 µM,,,,,,,
COc1ccc(C2=N[C@H](c3ccc(Cl)cc3)[C@H](c3ccc(Cl)cc3)N2C(=O)N[C@H](C)C(=O)O)c(OC(C)C)c1,5.95 µM,1.67 µM,9.2 µM,5.59 µM,3.27 µM,6.7 µM,,,,,,,
CCN(CC)C(=O)CCCNC(=O)N1C(c2ccc(OC)cc2OC(C)C)=N[C@H](c2ccc(Cl)cc2)[C@@H]1c1ccc(Cl)cc1,4.26 µM,1.38 µM,6.45 µM,7.54 µM,4.18 µM,6.93 µM,,,,,,,
COc1ccc(C2=N[C@H](c3ccc(Cl)cc3)[C@H](c3ccc(Cl)cc3)N2C(=O)NCCC(=O)N2CCOCC2)c(OC(C)C)c1,3.78 µM,3.96 µM,5.89 µM,7.58 µM,2.23 µM,3.6 µM,,,,,,,
CCN(CC)C(=O)[C@@H](C)NC(=O)N1C(c2ccc(OC)cc2OC(C)C)=N[C@H](c2ccc(Cl)cc2)[C@@H]1c1ccc(Cl)cc1,7.53 µM,> 50 µM,8.56 µM,16.8 µM,5.01 µM,8.48 µM,,,,,,,
COc1ccc(C2=N[C@H](c3ccc(Cl)cc3)[C@H](c3ccc(Cl)cc3)N2C(=O)N[C@@H](C)C(=O)O)c(OC(C)C)c1,,,,,3.39 µM,,Not Active,Not Active,Not Active,Not Active,Not Active,,
COc1ccc(C2=N[C@H](c3ccc(Cl)cc3)[C@H](c3ccc(Cl)cc3)N2C(=O)NCC(=O)N2CCOCC2)c(OC(C)C)c1,5.63 µM,10.9 µM,6.25 µM,7.02 µM,5.27 µM,2.99 µM,,,,,,5.75 µM,
COc1ccc(C2=N[C@H](c3ccc(Cl)cc3)[C@H](c3ccc(Cl)cc3)N2C(=O)NCC(=O)N2CCCC2)c(OC(C)C)c1,3.99 µM,3.13 µM,2.9 µM,5.87 µM,10.3 µM,6.11 µM,,,,,,,
COc1ccc(C2=NC(c3ccc(Cl)cc3)C(c3ccc(Cl)cc3)N2C(=O)N2CCN(C(C)=O)CC2)c(OC(C)C)c1 (stereo not given),20.5 µM,24 µM,33.7 µM,40.6 µM,,19.5 µM,,,,,,,
COc1ccc(C2=N[C@H](c3ccc(Cl)cc3)[C@H](c3ccc(Cl)cc3)N2C(=O)N[C@@H](C)C(=O)N2CCN(C)CC2)c(OC(C)C)c1,,,,,5.96 µM,,Not Active,Not Active,Not Active,Not Active,Not Active,,
COc1ccc(C2=N[C@H](c3ccc(Cl)cc3)[C@H](c3ccc(Cl)cc3)N2C(=O)NCC(=O)N2CCN(C(C)=O)CC2)c(OC(C)C)c1,6.41 µM,3.42 µM,8.13 µM,7.1 µM,5.43 µM,5.48 µM,,,,,,,
COc1ccc(C2=N[C@H](c3ccc(Cl)cc3)[C@H](c3ccc(Cl)cc3)N2C(=O)NCCC(=O)N2CCN(C)CC2)c(OC(C)C)c1,2.36 µM,5.95 µM,5.99 µM,6.83 µM,5.83 µM,2.93 µM,,,,,,,
CCN(CC)C(=O)CCNC(=O)N1C(c2ccc(OC)cc2OC(C)C)=N[C@H](c2ccc(Cl)cc2)[C@@H]1c1ccc(Cl)cc1,6.39 µM,4.03 µM,3.13 µM,7.26 µM,0.65 µM,4.62 µM,,,,,,,

# The remaining lines, values ahead:
"IC50 [1, 8]","IC50 [2, 9]","IC50 [3, 10]","IC50 [4, 11]",IC50 ([5]; read-out: IC50),"IC50 [6, 12]",IC50 ([1]; hct-116),IC50 ([2]; a549),IC50 ([3]; sw-620),IC50 ([4]; pc-3),IC50 ([6]; hl-60),IC50 ([5]; read-out: pIC50 (converted)),Ratio IC50 [7],Structure (SMILES)
9.22 µM,14.3 µM,9.41 µM,8.59 µM,3.36 µM,7.82 µM,,,,,,,,CCOC(=O)CCNC(=O)N1C(c2ccc(OC)cc2OC(C)C)=N[C@H](c2ccc(Cl)cc2)[C@@H]1c1ccc(Cl)cc1
6.07 µM,0.48 µM,5.7 µM,3.9 µM,6.18 µM,5.73 µM,,,,,,,,COc1ccc(C2=N[C@H](c3ccc(Cl)cc3)[C@H](c3ccc(Cl)cc3)N2C(=O)NCC(=O)O)c(OC(C)C)c1
4.74 µM,3.63 µM,3.88 µM,6.89 µM,4.29 µM,2.93 µM,,,,,,,,CCOC(=O)CNC(=O)N1C(c2ccc(OC)cc2OC(C)C)=N[C@H](c2ccc(Cl)cc2)[C@@H]1c1ccc(Cl)cc1
,,,,0.84 µM,,Not Active,Not Active,Not Active,Not Active,Not Active,,,CCOC(=O)[C@H](C)NC(=O)N1C(c2ccc(OC)cc2OC(C)C)=N[C@H](c2ccc(Cl)cc2)[C@@H]1c1ccc(Cl)cc1
,,,,1.07 µM,,Not Active,Not Active,Not Active,Not Active,Not Active,,,COc1ccc(C2=N[C@H](c3ccc(Cl)cc3)[C@H](c3ccc(Cl)cc3)N2C(=O)NCCC(=O)O)c(OC(C)C)c1
3.73 µM,0.31 µM,5.52 µM,2.2 µM,0.59 µM,3.78 µM,,,,,,,8,CCOC(=O)[C@@H](C)NC(=O)N1C(c2ccc(OC)cc2OC(C)C)=N[C@H](c2ccc(Cl)cc2)[C@@H]1c1ccc(Cl)cc1
5.1 µM,4.33 µM,12.3 µM,5.84 µM,9.41 µM,6.08 µM,,,,,,,,CCN(CC)C(=O)CNC(=O)N1C(c2ccc(OC)cc2OC(C)C)=N[C@H](c2ccc(Cl)cc2)[C@@H]1c1ccc(Cl)cc1
6.65 µM,3.25 µM,8.02 µM,6.2 µM,1.66 µM,5.81 µM,,,,,,,,CCOC(=O)CCCNC(=O)N1C(c2ccc(OC)cc2OC(C)C)=N[C@H](c2ccc(Cl)cc2)[C@@H]1c1ccc(Cl)cc1
